Measured values: patent publication US11084789B2, “Mast-cell modulators and uses thereof” (Beth Israel Deaconess Medical Center, Inc., priority 2016, dated 2021)
“Also recorded” adds a separate entry of the source.

What was measured:
NFAT-c1 = assay: Nuclear translocation of NFAT in activated RBL cells (nuclear NFAT-c1 ELISA); assay type: cell-based, rodent
Procedure: (§1) [Ca^2+]ER in RBL2H3 cells were depleted by Tg in the same manner in the presence of the CRAC channel blockers as for [Ca^2+]i measurement but without loading the cells with Fluo-4NW. Then 200 μl of DMEM-3% FBS (containing 3 mM Ca^2+) was supplemented back in the presence of the corresponding concentration of CRAC channel blockers. Thirty minutes after Ca^2+-add back culture supernatant was collected for degranulation measurement. Degranulation was measured as secreted β-hexosaminidase according to the protocol of the assay kit (Sigma-Aldrich, MO, USA). Nuclear fraction was prepared from the cells for NFAT by using a subcellular protein fractionation kit (NE-PER™ Nuclear and Cytoplasmic Extraction Reagents, Pierce Biotechnology, Thermo Fisher Scientific, MA, USA). Nuclear NFAT-c1 was measured with an ELISA kit (Active Motif, CA, USA). At this time point TNFα was measured as pre-stored release with ELISA kits (R&D Systems, MN, USA). In a part after Ca^2+ add back incubation was prolonged for 4 h to measure de novo production of the cytokine TNFα.
The inhibition of nuclear translocation of the nuclear factor of activated T-cells (NFAT) by compound 12 in activated MCs was determined. […] Nuclear fraction was prepared from the cells by subcellular protein fractionation, and the nuclear NFAT-c1 content was measured by ELISA. […]

TNFα = TNFα protein secretion by activated RBL cells (ELISA); assay type: cell-based, rodent; details: secreted TNFα (pre-stored plus de novo) 4 hours after Ca2+ re-exposure
Procedure: as §1
(§2) IC50 and EC50 were calculated by nonlinear regression using Prims Graphpad software. Statistical analysis was performed by one-way ANOVA and post-hoc test (Tukey's test).
Mast cells can secrete pre-stored TNFα immediately upon activation, as well as de novo synthesized TNFα that takes a few hours to produce. RBL cells were activated similarly as described above, in the presence of various concentrations of a CRAC channel blocker. 4 Hours after RBL cells were re-exposed to Ca^2+, secreted TNFα (which accounted for the combined protein from pre-stored and de novo synthesized TNFα) in the supernatants were measured by ELISA.

RBL-2H3 cells = assay: Mast cell degranulation: β-hexosaminidase release from thapsigargin-activated RBL-2H3 cells; assay type: cell-based, rodent; details: 1 μM thapsigargin
Procedure: as §1
Compound 12 was used to determine the inhibition of MC degranulation by measuring the release of pre-stored β-hexosaminidase 03-hex) upon MC activation. […] 30 Minutes after assay media were replenished with extracellular Ca^2+, supernatants and cell lysates were analyzed for β-hex concentrations by ELISA.

CRAC channel = CRAC channel (Rattus norvegicus, UniProt Q5M848); assay: Inhibition of thapsigargin-induced calcium influx (intracellular Ca2+, Fluo-4NW) in RBL-2H3 cells; assay type: cell-based, rodent; details: 1 μM thapsigargin, 60 min compound incubation
Sequence of CRAC channel (Q5M848 whole entry): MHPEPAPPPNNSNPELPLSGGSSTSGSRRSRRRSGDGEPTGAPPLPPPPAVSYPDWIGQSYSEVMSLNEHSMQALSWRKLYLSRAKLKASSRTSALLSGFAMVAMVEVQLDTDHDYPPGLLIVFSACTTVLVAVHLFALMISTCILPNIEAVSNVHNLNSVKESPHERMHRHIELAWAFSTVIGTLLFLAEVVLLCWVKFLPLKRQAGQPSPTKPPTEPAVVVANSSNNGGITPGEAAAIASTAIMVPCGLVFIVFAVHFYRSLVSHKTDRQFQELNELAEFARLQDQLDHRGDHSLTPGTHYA
Sequence of CRAC channel (P84903 23-685, further chain): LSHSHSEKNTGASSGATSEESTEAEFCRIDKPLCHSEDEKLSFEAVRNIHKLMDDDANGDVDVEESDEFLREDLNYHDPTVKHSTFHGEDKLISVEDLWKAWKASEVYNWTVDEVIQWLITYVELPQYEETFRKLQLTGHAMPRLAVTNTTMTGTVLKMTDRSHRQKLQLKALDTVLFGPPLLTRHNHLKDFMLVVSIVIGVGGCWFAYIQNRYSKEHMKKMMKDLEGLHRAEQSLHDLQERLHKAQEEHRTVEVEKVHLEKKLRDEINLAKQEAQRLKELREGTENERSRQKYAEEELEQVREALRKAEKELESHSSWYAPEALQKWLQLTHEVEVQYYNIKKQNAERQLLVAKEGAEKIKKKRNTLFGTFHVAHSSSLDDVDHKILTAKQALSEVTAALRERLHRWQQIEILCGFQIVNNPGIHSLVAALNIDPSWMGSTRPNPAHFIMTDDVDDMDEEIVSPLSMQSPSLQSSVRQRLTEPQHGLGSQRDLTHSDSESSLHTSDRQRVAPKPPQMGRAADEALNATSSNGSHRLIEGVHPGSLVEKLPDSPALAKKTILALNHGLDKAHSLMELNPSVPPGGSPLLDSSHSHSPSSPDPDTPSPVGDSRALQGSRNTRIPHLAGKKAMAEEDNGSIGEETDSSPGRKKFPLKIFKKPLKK
Procedure: RBL-2H3 cells (ATCC) were seeded in 96-well plate at 4×10^4 cells per well in DMEM-supplemented with 2% FBS and allowed to adhere overnight. Culture medium was then replaced with 50 μl of Ca^2+-free Tyrode solution to load Ca^2+-probe Fluo-4NW (Molecular Probe, Thermo Fisher, MA, USA) at 1:1 to the cells. New compound at indicated concentration was supplied during the probe loading from the beginning. Cells were incubated in the presence or absence of new compound for 60 minutes in the Ca^2+-free medium at 37° C. During the last 5 minutes of incubation, cells were treated with 1 μM thapsigargin (Sigma Aldrich) to deplete [Ca^2+]ER. 20 mM CaCl2 in saline solution was supplemented back to the [Ca^2+]ER-depleted cells to be 2 mM as final. Cell medium was removed 1 minute after Ca^2+ reloading, and changes in Fluo-4NW fluorescence (RFU) were recorded with the multi-mode plate reader (FilterMax F5, Molecular Devices/Thermo Fisher Scientific, MA, USA) at an excitation wavelength of 485 nm and an emission wavelength of 535 nm.
as §2
Inhibitory activity of calcium influx by the described compounds was determined using the RBL-2H3 rodent MC cell line as the primary in vitro assay. […]

[1] = test system: macrophages in skin of DM mice; assay: M1/M2 macrophages in intact skin of diabetic mice; assay type: in vivo
Source text: (§3) C57B16 mice were made diabetic (DM) using Streptozotocin (STZ) and rabbits were made DM using alloxan. A 10-day wound-healing period was chosen since at least 80% wounds in non-DM mice and rabbits heal by that time-point. A dressing based on an alginate bandage for topical sustained release of Compound 1 was generated following the methods described in WO 2014/169250, and was then applied the shaved dorsum of DM mice either before (pre-wound) or after wounds (post-wound) were introduced. A comparison was made with the FDA-approved MC stabilizer, disodium cromoglycate (DSCG), 50 mg/kg DSCG (Intraperitoneal (ip) daily, 10 consecutive days prior to wounding) in non-DM and DM mice followed by wound procedure. Wound healing was monitored for 10 days.

[2] = test system: wounds of diabetic (STZ) C57B16 mice; assay: Wound healing in diabetic mice; assay type: in vivo; details: DM mice
Source text: as §3

## O=C(Nc1nn(Cc2ccc(Cl)cc2Cl)c2ccccc12)c1ccncc1F [Compound 12, N-[1-[(2,4-dichlorophenyl)methyl]indazol-3-yl]-3-fluoro-pyridine-4-carboxamide]
NFAT-c1; 1 μM thapsigargin, 30 min after Ca2+ add back, various concentrations, 5-fold increase without blocker
  nuclear fraction of NFAT-c1 in activated RBL cells: significantly and dose-dependently reduced the nuclear fraction of NFAT-c1; also recorded: dose-dependent inhibition
NFAT-c1; 10 μM and higher, activated RBL cells
  levels of nuclear NFAT at 10 μM and higher concentrations: restore the levels of nuclear NFAT to that of resting MCs
TNFα
  IC50: 280 nM
RBL-2H3 cells; 40% of β-hex released without inhibitor
  inhibition of β-hex release at the highest concentration tested: nearly complete inhibition of β-hex release
RBL-2H3 cells; 30 min after Ca2+ add back, various concentrations
  inhibition of β-hex release: significantly and dose-dependently inhibited the release of β-hex; also recorded: dose-dependent inhibition

## O=C(Nc1c(F)cccc1F)c1nn(Cc2ccc(Cl)cc2Cl)c2ccccc12 [Compound 7, 1-[(2,4-dichlorophenyl)methyl]-N-(2,6-difluorophenyl)indazole-3-carboxamide]
TNFα
  IC50: 470 nM

## O=C(Nc1nn(Cc2ccc(Cl)cc2Cl)c2ccccc12)c1ccccc1F [Compound 3, N-[1-[(2,4-dichlorophenyl)methyl]indazol-3-yl]-2-fluoro-benzamide]
CRAC channel
  IC50: 29000 nM

## O=C(Nc1ccc(F)cc1F)c1nn(Cc2ccc(Cl)cc2Cl)c2ccccc12 [Compound 14, 1-[(2,4-dichlorophenyl)methyl]-N-(2,4-difluorophenyl)indazole-3-carboxamide]
TNFα
  IC50: 640 nM

## O=C(Nc1c(F)cccc1F)c1cn(Cc2ccc(Cl)cc2Cl)c2ccccc12 [Compound 1, 1-[(2,4-dichlorophenyl)methyl]-N-(2,6-difluorophenyl)indole-3-carboxamide]
[1]; treatment for 10 days without any wound
  number of M2 macrophages in skin: increased the number of M2 macrophages
[2]; topical alginate dressing, 10 days pre-wounding or 10 days post-wounding, monitored 10 days
  wound healing: improved wound healing similar to systemic DSCG pre-treatment

## O=C([O-])c1cc(=O)c2c(OCC(O)COc3cccc4oc(C(=O)[O-])cc(=O)c34)cccc2o1.[Na+].[Na+] [DSCG, disodium cromoglycate, reference compound]
[1]; DSCG treatment
  M1/M2 ratio in intact skin: reduced M1/M2 ratio in intact skin
[2]; 50 mg/kg ip daily, 10 consecutive days prior to wounding, p<0.05
  wound healing: improved diabetic mouse wound healing

## O=C(Nc1ccncc1F)c1cn(Cc2ccc(Cl)cc2Cl)c2ccccc12 [Compound 11, 1[(2,4-dichlorophenyl)methyl]-N-(3-fluoro-4-pyridyl)indole-3-carboxamide]
TNFα
  IC50: 580 nM

## O=C(Nc1c(F)cccc1Cl)c1nn(Cc2ccc(Cl)cc2Cl)c2ccccc12 [Compound 8, N-(2-chloro-6-fluoro-phenyl)-1-[(2,4-dichlorophenyl)methyl]indazole-3-carboxamide]
TNFα
  IC50: 740 nM

## O=C(Nc1c(F)cncc1F)c1nn(Cc2ccc(Cl)cc2Cl)c2ccccc12 [Compound 15, 1-[(2,4-dichlorophenyl)methyl]-N-(3,5-difluoro-4-pyridyl)indazole-3-carboxamide]
TNFα
  IC50: 140 nM
